pIC50: −log10 of the molar value.

In patent EP4755888A1 (ILAb Co., Ltd., priority 2023, dated 2025) one finds IC50 data, which are given here for 20 compounds.

Sequence of PD-1/PD-L1 (Q9NZQ7 19-238 limits assumed): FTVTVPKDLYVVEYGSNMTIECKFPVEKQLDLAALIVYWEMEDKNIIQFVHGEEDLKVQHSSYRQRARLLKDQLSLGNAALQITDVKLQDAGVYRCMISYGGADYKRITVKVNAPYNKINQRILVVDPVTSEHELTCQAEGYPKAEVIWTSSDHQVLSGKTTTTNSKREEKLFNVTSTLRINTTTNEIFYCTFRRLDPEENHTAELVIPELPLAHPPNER

The target in the assay is PD-1/PD-L1 (Homo sapiens, UniProt Q9NZQ7). The experiment in a line: TR-FRET PD-1/PD-L1 binding inhibition at the molecular level (free proteins). The settings on record: Tag1-PD-L1 and Tag2-PD-1 proteins, twelve concentrations from 200 nM, 2 hours at room temperature, read-out: FRET assay (IC50). The gist of the method:
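HTRF read-out at 665/620 nm after 2 h at room temperature. Detection used anti-Tag1 Eu cryptate plus anti-Tag2 XL665 antibodies. Tagged PD-L1 and PD-1 proteins were pre-mixed with compound across twelve […] 1:2 dilutions starting at 200 nM.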
On the technique in general: In TR-FRET formats the signal depends on donor and acceptor labels being close together.
Regarding `COc1cc(-c2cccc(-c3cccc(NC(=O)c4cc5n(n4)CCCC5NCC(=O)O)c3Cl)c2Cl)cc(F)c1CN1CC[C@@H](O)C1` (stereo partly drawn) [Compound 187, 2-((2-((2,2'-dichloro-3"-fluoro-4"-(((R)-3-hydroxypyrrolidin-1-yl)methyl)-5"-methoxy-[1,1':3',1"-terphenyl]-3-yl)carbamoyl)-4,5,6,7-tetrahydropyrazolo[1,5-a]pyridin-4-yl)amino)acetic acid], the pIC50 was over 8.00. For the compound `CN[C@@H]1CCCn2nc(C(=O)Nc3cccc(-c4cccc(Nc5nc(C(F)(F)F)nc6cc(CN7CC[C@@H](O)C7)cnc56)c4Cl)c3Cl)cc21` [Compound 353, (R)-N-(2,2'-dichloro-3'-((7-(((R)-3-hydroxypyrrolidin-1-yl)methyl)-2-(trifluoromethyl)pyrido[3,2-d]pyrimidin-4-yl)amino)-[1,1'-biphenyl]-3-yl)-4-(methylamino)-4,5,6,7-tetrahydropyrazolo[1,5-a]pyridine-2-carboxamide], the pIC50 was 7.00 to 8.00. As for `COc1cc(-c2cccc(-c3cccc(NC(=O)c4cc5n(n4)CCC[C@@H]5NCC(=O)O)c3Cl)c2Cl)cc(F)c1CNC[C@@H]1CCC(=O)N1` [Compound 249, 2-(((S)-2-((2,2'-dichloro-3"-fluoro-5"-methoxy-4"-(((((S)-5-oxopyrrolidin-2-yl)methyl)amino)methyl)-[1,1':3',1"-terphenyl]-3-yl)carbamoyl)-4,5,6,7-tetrahydropyrazolo[1,5-a]pyridin-4-yl)amino)acetic acid], the figure is 7.00 to 8.00; as for `Cc1c(NC(=O)c2cc3n(n2)CCCC3O)cccc1-c1cccc(Nc2nc(C(F)F)nc3cc(CN4CC[C@@H](O)C4)cnc23)c1C` (stereo partly drawn) [Compound 129, N-(3'-((2-(difluoromethyl)-7-(((R)-3-hydroxypyrrolidin-1-yl)methyl)pyrido[3,2-d]pyrimidin-4-yl)amino)-2,2'-dimethyl-[1,1'-biphenyl]-3-yl)-4-hydroxy-4,5,6,7-tetrahydropyrazolo[1,5-a]pyridine-2-carboxamide], over 8.00. As for `Cc1c(Nc2nccc3cc(CN4CC[C@@H](O)C4)cnc23)cccc1-c1cccc(-c2cc3n(n2)CCCC3NCCO)c1C` (stereo partly drawn) [Compound 174, (3R)-1-((8-((3'-(4-((2-hydroxyethyl)amino)-4,5,6,7-tetrahydropyrazolo[1,5-a]pyridin-2-yl)-2,2'-dimethyl-[1,1'-biphenyl]-3-yl)amino)-1,7-naphthyridin-3-yl)methyl)pyrrolidin-3-ol], the figure is over 8.00. On to `COc1cc(C(=O)Nc2cccc(-c3cccc(NC(=O)c4cc5n(n4)CCCC5NCC(=O)O)c3Cl)c2Cl)cc(F)c1CN1CC[C@@H](O)C1` (stereo partly drawn) [Compound 192, 2-((2-((2,2'-dichloro-3'-(3-fluoro-4-(((R)-3-hydroxypyrrolidin-1-yl)methyl)-5-methoxybenzamido)-[1,1'-biphenyl]-3-yl)carbamoyl)-4,5,6,7-tetrahydropyrazolo[1,5-a]pyridin-4-yl)amino)acetic acid], for which the pIC50 was over 8.00.

For `COc1cc(-c2cccc(-c3cccc(NC(=O)c4cc5n(n4)CCCC5NCCO)c3Cl)c2Cl)cc(F)c1CN1CC[C@@H](O)C1` (stereo partly drawn) [Compound 122, N-(2,2'-dichloro-3"-fluoro-4"-(((R)-3-hydroxypyrrolidin-1-yl)methyl)-5"-methoxy-[1,1':3',1"-terphenyl]-3-yl)-4-((2-hydroxyethyl)amino)-4,5,6,7-tetrahydropyrazolo[1,5-a]pyridine-2-carboxamide], the pIC50 was over 8.00. With `Cc1c(NC(=O)c2cc3n(n2)CCN(CCO)C3)cccc1-c1cccc(Nc2nc(C(F)F)nc3cc(CN4CC[C@@H](O)C4)cnc23)c1C` [Compound 327, (R)-N-(3'-((2-(difluoromethyl)-7-((3-hydroxypyrrolidin-1-yl)methyl)pyrido[3,2-d]pyrimidin-4-yl)amino)-2,2'-dimethyl-[1,1'-biphenyl]-3-yl)-5-(2-hydroxyethyl)-4,5,6,7-tetrahydropyrazolo[1,5-a]pyrazine-2-carboxamide], the pIC50 was over 8.00. Take `O=C(Nc1cccc(-c2cccc(Nc3nccc4nccnc34)c2Cl)c1Cl)c1cc2n(n1)CCC[C@@H]2N1CC(C(=O)O)C1` [Compound 264, (S)-1-(2-((2,2'-dichloro-3'-(pyrido[3,4-b]pyrazin-5-ylamino)-[1,1'-biphenyl]-3-yl)carbamoyl)-4,5,6,7-tetrahydropyrazolo[1,5-a]pyridin-4-yl)azetidine-3-carboxylic acid]: the pIC50 was over 8.00.

For `O=C(Nc1cccc(-c2cccc(Nc3nc(C(F)F)nc4cc(CN5CC[C@@H](O)C5)cnc34)c2Cl)c1Cl)c1cc2n(n1)CCCC2N1CCC(O)CC1` (stereo partly drawn) [Compound 144, N-(2,2'-dichloro-3'-((2-(difluoromethyl)-7-(((R)-3-hydroxypyrrolidin-1-yl)methyl)pyrido[3,2-d]pyrimidin-4-yl)amino)-[1,1'-biphenyl]-3-yl)-4-(4-hydroxypiperidin-1-yl)-4,5,6,7-tetrahydropyrazolo[1,5-a]pyridine-2-carboxamide], the pIC50 is 7.00 to 8.00. Regarding `COc1cc(-c2cccc(-c3cccc(NC(=O)c4cc5n(n4)CCC[C@@H]5NCC(=O)O)c3Cl)c2Cl)cc(F)c1CNCCO` [Compound 245, (S)-2-((2-((2,2'-dichloro-3"-fluoro-4"-(((2-hydroxyethyl)amino)methyl)-5"-methoxy-[1,1':3',1"-terphenyl]-3-yl)carbamoyl)-4,5,6,7-tetrahydropyrazolo[1,5-a]pyridin-4-yl)amino)acetic acid], the pIC50 is over 8.00. As for `Cc1nc(Nc2cccc(-c3cccc(NC(=O)c4cc5n(n4)CCC[C@@H]5NC(C)(C)C(=O)O)c3Cl)c2Cl)c2ncccc2n1` [Compound 279, (S)-2-((2-((2,2'-dichloro-3'-((2-methylpyrido[3,2-d]pyrimidin-4-yl)amino)-[1,1'-biphenyl]-3-yl)carbamoyl)-4,5,6,7-tetrahydropyrazolo[1,5-a]pyridin-4-yl)amino)-2-methylpropanoic acid], the figure is 7.00 to 8.00.

With `CC(C)(N[C@@H]1CCCn2nc(C(=O)Nc3cccc(-c4cccc(Nc5nccc6nccnc56)c4Cl)c3Cl)cc21)C(=O)O` [Compound 259-1, (R)-2-((2-((2,2'-dichloro-3'-(pyrido[3,4-b]pyrazin-5-ylamino)-[1,1'-biphenyl]-3-yl)carbamoyl)-4,5,6,7-tetrahydropyrazolo[1,5-a]pyridin-4-yl)amino)-2-methylpropanoic acid], the pIC50 was 7.00 to 8.00. As to `Cc1c(Nc2nccc3cc(CN4CC[C@@H](O)C4)cnc23)cccc1-c1cccc(NC(=O)c2cc3n(n2)CCCC3N2CC[C@@H](C(=O)O)C2)c1Cl` (stereo partly drawn) [Compound 33, (3R)-1-(2-((2-chloro-3'-((3-(((R)-3-hydroxypyrrolidin-1-yl)methyl)-1,7-naphthyridin-8-yl)amino)-2'-methyl-[1,1'-biphenyl]-3-yl)carbamoyl)-4,5,6,7-tetrahydropyrazolo[1,5-a]pyridin-4-yl)pyrrolidine-3-carboxylic acid], the pIC50 is over 8.00. In the case of `O=C(O)CNC1CCCn2nc(C(=O)Nc3cccc(-c4cccc(NC(=O)c5cc6n(n5)CCCC6NCC(=O)O)c4Cl)c3Cl)cc21` (centres unmarked) [Compound 8, 2-[[2-[[3-[3-[[4-(carboxymethylamino)-4,5,6,7-tetrahydropyrazolo[1,5-a]pyridine-2-carbonyl]amino]-2-chlorophenyl]-2-chlorophenyl]carbamoyl]-4,5,6,7-tetrahydropyrazolo[1,5-a]pyridin-4-yl]amino]acetic acid], the pIC50 was over 8.00. As to `COc1cc(C(=O)Nc2cccc(-c3cccc(NC(=O)c4cc5n(n4)CCCC5N4CC[C@@H](C(=O)O)C4)c3Cl)c2Cl)cc(F)c1CNCC(=O)O` (stereo partly drawn) [Compound 195, (3R)-1-(2-((3'-(4-(((carboxymethyl)amino)methyl)-3-fluoro-5-methoxybenzamido)-2,2'-dichloro-[1,1'-biphenyl]-3-yl)carbamoyl)-4,5,6,7-tetrahydropyrazolo[1,5-a]pyridin-4-yl)pyrrolidine-3-carboxylic acid], the pIC50 is over 8.00. For `Cc1c(NC(=O)c2cc3n(n2)CCCC3NCC(=O)O)cccc1-c1cccc(Nc2nc(C(F)F)nc3cc(CN4CC[C@@H](O)C4)cnc23)c1C` (stereo partly drawn) [Compound 134, 2-((2-((3'-((2-(difluoromethyl)-7-(((R)-3-hydroxypyrrolidin-1-yl)methyl)pyrido[3,2-d]pyrimidin-4-yl)amino)-2,2'-dimethyl-[1,1'-biphenyl]-3-yl)carbamoyl)-4,5,6,7-tetrahydropyrazolo[1,5-a]pyridin-4-yl)amino)acetic acid] the value was 7.00 to 8.00; for `COc1cc(-c2cccc(-c3cccc(NC(=O)c4cc5n(n4)CCCC5O)c3C)c2C)cc(F)c1CN1CC[C@@H](O)C1` (stereo partly drawn) [Compound 113, N-(3"-fluoro-4"-(((R)-3-hydroxypyrrolidin-1-yl)methyl)-5"-methoxy-2,2'-dimethyl-[1,1':3',1"-terphenyl]-3-yl)-4-hydroxy-4,5,6,7-tetrahydropyrazolo[1,5-a]pyridine-2-carboxamide], over 8.00.

For `O=C1CC[C@@H](CNC2CCCn3nc(-c4cccc(-c5cccc(Nc6nccc7cc(CN8CC[C@@H](O)C8)cnc67)c5Cl)c4Cl)cc32)N1` (stereo partly drawn) [Compound 182, (5S)-5-(((2-(2,2'-dichloro-3'-((3-(((R)-3-hydroxypyrrolidin-1-yl)methyl)-1,7-naphthyridin-8-yl)amino)-[1,1'-biphenyl]-3-yl)-4,5,6,7-tetrahydropyrazolo[1,5-a]pyridin-4-yl)amino)methyl)pyrrolidin-2-one], the pIC50 is 7.00 to 8.00. For `COc1nc(-c2cccc(-c3cccc(-c4cc5n(n4)CCCC5NCC(=O)O)c3C)c2C)cnc1CNC[C@@H]1CCC(=O)N1` (stereo partly drawn) [Compound 163, 2-((2-(3'-(6-methoxy-5-(((((S)-5-oxopyrrolidin-2-yl)methyl)amino)methyl)pyrazin-2-yl)-2,2'-dimethyl-[1,1'-biphenyl]-3-yl)-4,5,6,7-tetrahydropyrazolo[1,5-a]pyridin-4-yl)amino)acetic acid] the value was 7.00 to 8.00.

What is called pIC50 is −log10 of the IC50, conventionally taken in molar units.
